The numbers were not newly measured in patent US8007545B2, “Deodorant compositions” (Kao Corporation, priority 2005, dated 2011), which cites them from elsewhere.

The conditions of this series: 1-octanol/water; actual database value or C log P.
As to `CCCCC(CC)COCC(O)CO` (stereo not drawn) [b3-2, 2-Ethylhexyl monoglyceryl ether], the “log P” value is reported as 2.0. On to `CCCCCCOC(CO)COCC(O)CO` (stereo not drawn) [b3-1, Glyceryl ether monohexyl ether], for which the “log P” value is 1.1. On to `CCCCOCCOCCO` [b3-3, Diethylene glycol monobutyl ether], for which the “log P” value is recorded as 0.6.
